Patent US10561658B2, “Thieno- and pyrrolopyrimidine analogues as anticancer agents and methods of use thereof” (UNIVERSITY OF MARYLAND, BALTIMORE COUNTY, priority 2015, dated 2020)

Assays:
Test in all cases: Select Screen kinase profiling
Format in all cases: biochemical
FRAP1 (mTOR) = FRAP1 (mTOR) (Homo sapiens, UniProt P42345)
Text: (§1) The thieno[3,2-d]pyrimidine scaffold has been used extensively in the design of kinase inhibitors.

JAK2 JHI JH2 = target: T1, JAK2 JHI JH2 (Homo sapiens, UniProt O60674)
T1 construct: JAK2 JHI JH2
Text: as §1

JAK3 = JAK3 (Homo sapiens, UniProt P52333)
Text: as §1

LTK (TYK1) = LTK (TYK1) (Homo sapiens, UniProt P29376)
Text: as §1

MET (cMet) = MET (cMet) (Homo sapiens, UniProt P08581)
Text: as §1

PIK3C2A = PIK3C2A (Homo sapiens, UniProt O00443)
Text: as §1

PIK3C2B = PIK3C2B (Homo sapiens, UniProt O00750)
Text: as §1

PIK3C3 = PIK3C3 (Homo sapiens, UniProt Q8NEB9)
Text: as §1

PIK3CA/PIK3R1 = PIK3CA/PIK3R1 (Homo sapiens, UniProt P42336)
Text: as §1

PIK3CD/PIK3R1 = PIK3CD/PIK3R1 (Homo sapiens, UniProt O00329)
Text: as §1

PIK3CG = PIK3CG (Homo sapiens, UniProt P48736)
Text: as §1

PRKCN (PKD3) = PRKCN (PKD3) (Homo sapiens, UniProt O94806)
Text: as §1

PRKD1 (PKC mu) = PRKD1 (PKC mu) (Homo sapiens, UniProt Q15139)
Text: as §1

PRKD2 (PKD2) = PRKD2 (PKD2) (Homo sapiens, UniProt Q9BZL6)
Text: as §1

SRC = SRC (Homo sapiens, UniProt P12931)
Text: as §1

SRC N1 = SRC N1 (Homo sapiens, UniProt P12931)
Text: as §1

TYK2 = TYK2 (Homo sapiens, UniProt P29597)
Text: as §1

Measured: inhibition at 5 µM

Sequence of PIK3C2A (O00443 whole entry): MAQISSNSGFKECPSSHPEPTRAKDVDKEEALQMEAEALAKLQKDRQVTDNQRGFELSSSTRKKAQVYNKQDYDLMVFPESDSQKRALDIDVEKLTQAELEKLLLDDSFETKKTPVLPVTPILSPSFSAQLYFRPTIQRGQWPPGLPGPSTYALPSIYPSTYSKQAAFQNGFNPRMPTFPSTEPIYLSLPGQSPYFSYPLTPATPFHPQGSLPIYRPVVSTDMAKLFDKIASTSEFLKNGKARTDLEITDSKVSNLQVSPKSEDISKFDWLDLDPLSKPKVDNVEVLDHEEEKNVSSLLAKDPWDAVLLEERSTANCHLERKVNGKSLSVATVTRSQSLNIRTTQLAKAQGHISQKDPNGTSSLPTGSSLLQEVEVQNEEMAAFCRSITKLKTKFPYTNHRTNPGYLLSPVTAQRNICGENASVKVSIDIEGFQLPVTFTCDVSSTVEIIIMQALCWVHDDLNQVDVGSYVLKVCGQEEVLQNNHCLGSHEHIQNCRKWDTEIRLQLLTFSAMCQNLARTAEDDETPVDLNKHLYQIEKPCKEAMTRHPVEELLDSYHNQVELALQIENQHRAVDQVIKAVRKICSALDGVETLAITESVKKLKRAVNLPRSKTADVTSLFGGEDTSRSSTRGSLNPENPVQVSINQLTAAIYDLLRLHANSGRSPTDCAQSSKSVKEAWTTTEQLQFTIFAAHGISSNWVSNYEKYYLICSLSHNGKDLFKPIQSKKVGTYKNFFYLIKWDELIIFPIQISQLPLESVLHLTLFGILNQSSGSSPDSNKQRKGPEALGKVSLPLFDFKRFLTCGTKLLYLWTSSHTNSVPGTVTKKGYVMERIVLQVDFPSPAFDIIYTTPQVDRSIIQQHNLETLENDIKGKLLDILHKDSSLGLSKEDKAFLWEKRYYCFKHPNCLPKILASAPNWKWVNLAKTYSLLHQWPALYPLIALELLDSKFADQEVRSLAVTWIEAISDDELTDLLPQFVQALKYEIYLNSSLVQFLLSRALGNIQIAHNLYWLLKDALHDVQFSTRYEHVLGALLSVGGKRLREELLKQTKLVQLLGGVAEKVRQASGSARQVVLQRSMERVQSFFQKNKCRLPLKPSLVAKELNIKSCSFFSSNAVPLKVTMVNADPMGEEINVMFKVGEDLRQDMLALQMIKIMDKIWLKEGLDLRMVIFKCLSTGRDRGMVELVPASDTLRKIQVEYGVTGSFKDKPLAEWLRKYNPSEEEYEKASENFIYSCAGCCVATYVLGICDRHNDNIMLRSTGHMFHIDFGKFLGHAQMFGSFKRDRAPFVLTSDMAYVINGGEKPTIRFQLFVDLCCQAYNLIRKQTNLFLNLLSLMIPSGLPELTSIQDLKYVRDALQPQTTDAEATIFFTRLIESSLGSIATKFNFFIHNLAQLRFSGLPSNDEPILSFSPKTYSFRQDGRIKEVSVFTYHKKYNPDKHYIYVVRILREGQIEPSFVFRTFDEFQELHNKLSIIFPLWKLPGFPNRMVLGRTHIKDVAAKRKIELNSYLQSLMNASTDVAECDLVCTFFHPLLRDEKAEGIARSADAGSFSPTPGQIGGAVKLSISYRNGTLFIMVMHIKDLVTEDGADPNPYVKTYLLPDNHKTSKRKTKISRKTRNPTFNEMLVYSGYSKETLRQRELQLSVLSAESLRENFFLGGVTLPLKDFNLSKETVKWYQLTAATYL
Sequence of LTK (TYK1) (P29376 17-864): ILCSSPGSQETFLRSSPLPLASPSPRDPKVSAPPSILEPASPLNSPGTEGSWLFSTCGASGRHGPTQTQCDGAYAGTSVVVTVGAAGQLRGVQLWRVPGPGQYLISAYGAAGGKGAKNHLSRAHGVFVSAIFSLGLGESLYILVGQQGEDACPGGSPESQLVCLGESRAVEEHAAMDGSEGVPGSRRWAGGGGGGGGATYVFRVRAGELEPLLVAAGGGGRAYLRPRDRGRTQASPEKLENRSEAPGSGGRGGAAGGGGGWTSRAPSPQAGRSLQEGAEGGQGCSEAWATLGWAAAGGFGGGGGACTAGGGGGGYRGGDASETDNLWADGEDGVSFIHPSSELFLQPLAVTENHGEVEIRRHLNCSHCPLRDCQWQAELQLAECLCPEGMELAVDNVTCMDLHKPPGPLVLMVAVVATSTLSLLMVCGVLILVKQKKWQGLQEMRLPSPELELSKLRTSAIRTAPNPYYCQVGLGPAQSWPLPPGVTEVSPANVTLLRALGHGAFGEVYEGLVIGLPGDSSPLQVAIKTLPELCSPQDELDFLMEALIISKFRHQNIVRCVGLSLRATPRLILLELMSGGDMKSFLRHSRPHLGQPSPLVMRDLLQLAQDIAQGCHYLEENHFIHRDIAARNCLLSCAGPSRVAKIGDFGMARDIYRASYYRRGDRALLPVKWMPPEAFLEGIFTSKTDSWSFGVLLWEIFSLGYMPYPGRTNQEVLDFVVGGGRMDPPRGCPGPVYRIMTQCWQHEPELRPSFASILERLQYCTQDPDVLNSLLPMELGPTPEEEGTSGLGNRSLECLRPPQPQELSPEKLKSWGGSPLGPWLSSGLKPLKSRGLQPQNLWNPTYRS
Sequence of PRKCN (PKD3) (O94806 whole entry): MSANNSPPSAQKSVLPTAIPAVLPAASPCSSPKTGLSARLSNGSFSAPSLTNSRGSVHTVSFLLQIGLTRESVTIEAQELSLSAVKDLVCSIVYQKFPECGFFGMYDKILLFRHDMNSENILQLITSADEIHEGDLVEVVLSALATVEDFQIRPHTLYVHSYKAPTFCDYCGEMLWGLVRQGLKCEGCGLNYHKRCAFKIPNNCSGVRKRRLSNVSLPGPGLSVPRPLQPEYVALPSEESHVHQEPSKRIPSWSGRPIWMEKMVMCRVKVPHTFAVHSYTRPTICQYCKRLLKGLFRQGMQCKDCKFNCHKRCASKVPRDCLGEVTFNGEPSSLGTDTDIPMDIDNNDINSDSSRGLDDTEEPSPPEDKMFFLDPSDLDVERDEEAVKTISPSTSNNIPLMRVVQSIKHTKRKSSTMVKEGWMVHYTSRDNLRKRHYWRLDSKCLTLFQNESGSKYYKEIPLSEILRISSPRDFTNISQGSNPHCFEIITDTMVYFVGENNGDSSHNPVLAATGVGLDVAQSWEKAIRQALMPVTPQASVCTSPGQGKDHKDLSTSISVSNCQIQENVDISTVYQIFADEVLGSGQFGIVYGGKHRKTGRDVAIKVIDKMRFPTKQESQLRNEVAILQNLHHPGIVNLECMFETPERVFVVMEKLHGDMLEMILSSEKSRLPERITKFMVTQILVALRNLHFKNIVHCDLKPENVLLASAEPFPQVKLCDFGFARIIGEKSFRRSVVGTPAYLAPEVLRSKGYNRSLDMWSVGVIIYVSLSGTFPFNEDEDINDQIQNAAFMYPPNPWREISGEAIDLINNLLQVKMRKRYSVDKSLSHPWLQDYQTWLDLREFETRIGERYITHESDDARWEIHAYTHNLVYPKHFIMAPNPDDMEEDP
Sequence of TYK2 (P29597 whole entry): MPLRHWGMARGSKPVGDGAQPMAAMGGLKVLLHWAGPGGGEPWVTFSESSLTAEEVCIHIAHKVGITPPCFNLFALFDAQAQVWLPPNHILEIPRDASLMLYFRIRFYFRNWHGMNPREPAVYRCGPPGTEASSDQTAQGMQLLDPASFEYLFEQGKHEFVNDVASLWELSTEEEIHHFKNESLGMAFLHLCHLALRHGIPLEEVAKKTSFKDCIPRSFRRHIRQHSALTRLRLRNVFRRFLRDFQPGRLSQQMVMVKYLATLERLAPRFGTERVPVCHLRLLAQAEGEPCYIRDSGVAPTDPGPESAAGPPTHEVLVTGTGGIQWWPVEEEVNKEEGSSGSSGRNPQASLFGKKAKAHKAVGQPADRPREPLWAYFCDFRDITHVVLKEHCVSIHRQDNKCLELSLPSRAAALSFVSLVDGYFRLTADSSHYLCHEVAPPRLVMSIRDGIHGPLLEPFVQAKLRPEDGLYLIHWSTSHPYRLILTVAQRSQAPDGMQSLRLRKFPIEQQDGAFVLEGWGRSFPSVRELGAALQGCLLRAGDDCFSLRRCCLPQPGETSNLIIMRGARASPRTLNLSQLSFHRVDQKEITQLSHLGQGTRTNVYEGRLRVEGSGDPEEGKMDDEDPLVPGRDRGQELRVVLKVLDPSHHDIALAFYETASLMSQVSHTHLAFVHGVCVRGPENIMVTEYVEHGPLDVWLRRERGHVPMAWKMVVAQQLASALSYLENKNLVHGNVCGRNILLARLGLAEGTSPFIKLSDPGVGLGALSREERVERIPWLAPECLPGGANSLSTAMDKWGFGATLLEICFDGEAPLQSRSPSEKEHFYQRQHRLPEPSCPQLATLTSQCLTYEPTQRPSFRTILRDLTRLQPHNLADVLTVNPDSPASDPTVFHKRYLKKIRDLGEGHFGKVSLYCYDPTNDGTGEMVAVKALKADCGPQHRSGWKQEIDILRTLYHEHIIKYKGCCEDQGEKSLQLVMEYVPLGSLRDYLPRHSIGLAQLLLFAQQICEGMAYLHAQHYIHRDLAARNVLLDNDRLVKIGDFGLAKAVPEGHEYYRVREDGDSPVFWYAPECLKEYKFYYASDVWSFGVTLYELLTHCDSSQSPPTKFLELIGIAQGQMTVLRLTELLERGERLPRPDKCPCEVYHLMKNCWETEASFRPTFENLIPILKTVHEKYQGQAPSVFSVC

Clc1nc(Cl)c2sccc2n1 [Compound 1, 2,4-Dichlorothieno[3,2-d]pyrimidine]
< 40%: all assays above
